Results published in article PMC5466188 (Biotechnology Reports, 2014).

biological target: Acetylcholinesterase (AChE, from electric eel) (Electrophorus electricus, UniProt O42275); test: In vitro AChE inhibition assay; format: biochemical
Sequence (O42275 24-633): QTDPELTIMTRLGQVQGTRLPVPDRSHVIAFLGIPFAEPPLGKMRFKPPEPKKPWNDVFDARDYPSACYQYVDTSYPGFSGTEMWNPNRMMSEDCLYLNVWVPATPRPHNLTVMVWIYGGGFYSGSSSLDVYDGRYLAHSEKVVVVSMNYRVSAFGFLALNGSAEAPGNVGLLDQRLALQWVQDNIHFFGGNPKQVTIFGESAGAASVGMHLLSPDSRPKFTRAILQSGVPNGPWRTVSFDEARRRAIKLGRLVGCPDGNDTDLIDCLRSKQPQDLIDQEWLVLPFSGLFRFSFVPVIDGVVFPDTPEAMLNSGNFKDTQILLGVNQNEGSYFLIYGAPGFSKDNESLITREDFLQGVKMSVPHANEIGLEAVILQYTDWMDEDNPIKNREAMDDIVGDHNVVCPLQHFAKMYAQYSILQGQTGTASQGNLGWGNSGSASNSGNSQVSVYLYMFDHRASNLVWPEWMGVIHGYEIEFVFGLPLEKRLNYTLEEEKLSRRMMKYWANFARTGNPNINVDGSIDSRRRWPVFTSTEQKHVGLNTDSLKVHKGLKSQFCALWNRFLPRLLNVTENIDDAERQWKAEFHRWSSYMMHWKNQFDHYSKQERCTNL

SMILES	IC50
CC1=C(C(=O)NC(=O)c2cnccn2)C(c2cccc([N+](=O)[O-])c2)NC(=S)N1 (stereo not drawn) [Compound 4d, 6-Methyl-4-(3-nitrophenyl)-N-(pyrazin-2-ylcarbonyl)-2-thioxo-1,2,3,4-tetrahydropyrimidine-5-carboxamide]	1820 ± 10 nM
CC1=C(C(=O)NC(=O)c2cnccn2)C(c2cccc([N+](=O)[O-])c2)NC(=O)N1 (stereo not drawn) [Compound 4c, 6-Methyl-4-(3-nitrophenyl)-2-oxo-N-(pyrazin-2-ylcarbonyl)-1,2,3,4-tetrahydropyrimidine-5-carboxamide]	2540 ± 10 nM
CC1=C(C(=O)NC(=O)c2cnccn2)C(c2cccc(Cl)c2)NC(=S)N1 (stereo not drawn) [Compound 4f, 4-(3-Chlorophenyl)-6-methyl-N-(pyrazin-2-ylcarbonyl)-2-thioxo-1,2,3,4-tetrahydropyrimidine-5-carboxamide]	1050 ± 10 nM
CC1=C(C(=O)NC(=O)c2cnccn2)C(c2ccc(Cl)cc2)NC(=O)N1 (stereo not drawn) [Compound 4i, 4-(4-Chlorophenyl)-6-methyl-2-oxo-N-(pyrazin-2-ylcarbonyl)-1,2,3,4-tetrahydropyrimidine-5-carboxamide]	940 ± 10 nM
CC1=C(C(=O)NC(=O)c2cnccn2)C(c2ccccc2)NC(=O)N1 (stereo not drawn) [Compound 4a, 6-Methyl-2-oxo-4-phenyl-N-(pyrazin-2-ylcarbonyl)-1,2,3,4-tetrahydropyrimidine-5-carboxamide]	5350 ± 10 nM
CC1=C(C(=O)NC(=O)c2cnccn2)C(c2ccc(F)cc2)NC(=S)N1 (stereo not drawn) [Compound 4h, 4-(4-Fluorophenyl)-6-methyl-N-(pyrazin-2-ylcarbonyl)-2-thioxo-1,2,3,4-tetrahydropyrimidine-5-carboxamide]	750 ± 10 nM
CC1=C(C(=O)NC(=O)c2cnccn2)C(c2ccccc2)NC(=S)N1 (stereo not drawn) [Compound 4b, 6-Methyl-4-phenyl-N-(pyrazin-2-ylcarbonyl)-2-thioxo-1,2,3,4-tetrahydropyrimidine-5-carboxamide]	5260 ± 10 nM
CC1=C(C(=O)NC(=O)c2cnccn2)C(c2ccc(Cl)cc2)NC(=S)N1 (stereo not drawn) [Compound 4j, 4-(4-Chlorophenyl)-6-methyl-N-(pyrazin-2-ylcarbonyl)-2-thioxo-1,2,3,4-tetrahydropyrimidine-5-carboxamide]	880 ± 10 nM
CC1=C(C(=O)NC(=O)c2cnccn2)C(c2cccc(Cl)c2)NC(=O)N1 (stereo not drawn) [Compound 4e, 4-(3-Chlorophenyl)-6-methyl-2-oxo-N-(pyrazin-2-ylcarbonyl)-1,2,3,4-tetrahydropyrimidine-5-carboxamide]	1210 ± 10 nM
CC1=C(C(=O)NC(=O)c2cnccn2)C(c2ccncc2)NC(=O)N1 (stereo not drawn) [Compound 4k, 6-Methyl-2-oxo-N-(pyrazin-2-ylcarbonyl)-4-(pyridin-4-yl)-1,2,3,4-tetrahydropyrimidine-5-carboxamide]	190 ± 10 nM
CC1=C(C(=O)NC(=O)c2cnccn2)C(c2ccc(F)cc2)NC(=O)N1 (stereo not drawn) [Compound 4g, 4-(4-Fluorophenyl)-6-methyl-2-oxo-N-(pyrazin-2-ylcarbonyl)-1,2,3,4-tetrahydropyrimidine-5-carboxamide]	860 ± 10 nM
CC1=C(C(=O)NC(=O)c2cnccn2)C(c2ccncc2)NC(=S)N1 (stereo not drawn) [Compound 4l, 6-Methyl-N-(pyrazin-2-ylcarbonyl) -4-(pyridin-4-yl) -2-thioxo-1,2,3,4-tetrahydropyrimidine-5-carboxamide]	110 ± 10 nM
